Measured values reported in patent US8889638B2, “Stimulus-triggered prodrugs” (The Regents of the University of California, priority 2010, dated 2014).
Several values for one entry are separate records, joined by “and”; a condition that tells them apart may be missing. Identical values can stand only once.

Test system: β-glucosidase
Assay: β-glucosidase cleavage of glucose-protected compounds (UV-Vis, HPLC, Km)
Assay type: biochemical, almonds
Conditions: 37° C.
Description: Absorption spectra of compounds 1-8 were taken on a Perkin-Elmer Lambda 25 UV-visible spectrophotometer. To a 1.0 mL solution at 0.05-0.06 mM concentration in HEPES buffer (50 mM, pH 7.5) was added β-glucosidase (16 U for compounds 2, 4, and 6, and 100 U for compound 8). Spectra were monitored over time either at room temperature for compounds 1-7 or at 37° C. for compound 8.
To a 1.0 mL solution of 8 in HEPES buffer at 25 μM, 50 μM, 75 μM, 100 μM, and 200 μM was added 100 U of β-glucosidase. Spectra were monitored over 4 h at 37° C. The concentration of product formed, 1,2-HOPO-2 (7), was determined using the extinction coefficient for 7 calculated at 346 nm (4279±372 M-1 cm-1) and was plotted versus time (min). The initial velocity (ν) of each reaction was determined analyzing the linear slope of the first 50 min. The Km value was calculated from the Lineweaver-Burk plot (1/ν vs. 1/[8]) where −1/Km equals the x-intercept (FIG. 10).
Analytical HPLC was performed on a HP Series 1050 system equipped with a Vydac® C18 reverse phase column (218 TP, 250×4.6 mm, 5 μm). […] Retention times of compounds 1-8 were determined under identical HPLC conditions prior to evaluation of glucose cleavage of the protected compounds. […]

Km (100 U β-glucosidase, Lineweaver-Burk plot): ~210 µM and 210 µM
time required for complete conversion of 8 to 7 (β-glucosidase): ~4 h
Compound: O=C(NCc1ccc(-c2ccccc2)cc1)c1cccc(=O)n1O[C@@H]1O[C@H](CO)[C@@H](O)[C@H](O)[C@H]1O [Compound 8, N-(Biphenyl-4-ylmethyl)-6-oxo-1-(β-D-glucopyranosyloxy)-1,6-dihydropyridine-2-carboxamide]
